From article PMC12142043, “Cell-based high-content approach for SARS-CoV-2 neutralization identifies unique monoclonal antibodies and PI3K pathway inhibitors” (Frontiers in Cell and Developmental Biology, 2025) come the findings set out here.

The subject of series [1] is SARS-CoV-2 (USA-WA1/2020) in Calu-3 cells. Nature of the series: microbe, parasite or virus in culture. The note with it: for Effect on dsRNA / virus in dose response: Figure 5C-F; for EC50: read-out: EC50 (μM) dsRNA. It counts as cell-based.
Series [2] has as its system Calu-3 cells. As to conditions: for Effect on host cell viability and morphology: Figure 5C-F; for EC50: read-out: EC50 (μM) Cell count, Calu-3, DAPI-stained nuclei, above 30 μM reported as >30.
For series [3], the system named is Calu-3 cells infected with SARS-CoV-2. It counts as cell-based, human. Also noted: key to Grouping with red cluster (mock control) in UMAP: *: Clusters with mock control in high-dose treatment. As to conditions: for Shift in UMAP space with increasing concentration: Figure 5C-F; for Grouping with red cluster (mock control) in UMAP: high-dose treatment.
Series [4] relates to Calu-3 cells. Nature of the series: cells. As to conditions: Homo sapiens, Calu-3, read-out: EC50 (μM) Cell count.
For series [5], the system named is SARS-CoV-2 (USA-WA1/2020) in Calu-3 cells. It counts as cell-based. As to conditions: for dsRNA signal, AU High: high dose (10 µM); for dsRNA signal, AU High / dsRNA signal, AU Low: Calu-3, 48 h; for dsRNA signal, AU Low: low dose (100 nM).
The subject of series [6] is SARS-Cov-2 WA strain in A549 lung cells. The series is classed as cell-based.
The mark [7] stands for this setting: Severe acute respiratory syndrome coronavirus 2, Calu-3, 48 h, […], above 30 μM reported as >30.
The mark [8] stands for this setting: […], above 30 μM reported as >30.
[9] abbreviates: fold: cell count EC50 over dsRNA EC50.

Like-named read-outs stand apart in the source and are kept apart here.

The EC50 is the concentration at which the effect is half-maximal. On to `CCc1cc2c(cc1N1CCC(N3CCOCC3)CC1)C(C)(C)c1[nH]c3cc(C#N)ccc3c1C2=O` [CH5424802], for which, in series [1], the “Effect on dsRNA / virus in dose response” value was “reduced dsRNA very well”. Besides, the EC50 (in series [1] (setting [7]); in the series with Calu-3 cells [4]) was > 30 µM throughout. The “Effect on host cell viability and morphology” value in the series with Calu-3 cells [2] is “blebbing and general toxicity”. Besides, the “Shift in UMAP space with increasing concentration” value in series [3] was “adjacent yellow cluster”.
Take `O=C(O[C@@H]1Cc2c(O)cc(O)cc2O[C@@H]1c1cc(O)c(O)c(O)c1)c1cc(O)c(O)c(O)c1` [Epigallocatechin gallate (EGCG), Epigallocatechin gallate]: in series [5], the “dsRNA signal, AU High” value was determined as 14230.9 AU and the “dsRNA signal, AU Low” value was 24448.0 AU. Moreover, the “EC50 (μM) dsRNA” value in series [1] (setting [8]) is “None”. The EC50 in the series on Calu-3 cells [2] is > 30 µM. For the same molecule, the “Grouping with red cluster (mock control) in UMAP” value (“Grouping with red cluster” below) in series [3] was “Epigallocatechin gallate (EGCG)*”.
For the molecule `Cc1c(Cn2c(C)nc3c(C(=O)O)cc(N4CCOCC4)cc32)cccc1C(F)(F)F` [GSK2636771], the “Reduction of infection in representative images” value in series [5] (Figure 4A) is given as “reduced infection greatly”. Also, in series [5], the “dsRNA signal, AU High” value was 841.3 AU and the “dsRNA signal, AU Low” value was 28354.9 AU. Besides, the “Effect on dsRNA / virus in dose response” value in series [1] is listed as “reduction of dsRNA”. Also, the EC50 in series [1] (setting [7]) was 0.319 µM. For the same molecule, the Selectivity index in series [1] (setting [9]) is listed as >94. Moreover, the “Effect on host cell viability and morphology” value in the series with Calu-3 cells [2] was “minimal effect on host cell viability and morphology”. Besides, in series [3], the “Shift in UMAP space with increasing concentration” value is listed as “shift closer to cluster 1 controls” and the “Grouping with red cluster” value is listed as “GSK2636771*”. For the same molecule, the 50% effective concentration (EC50) in the series with Calu-3 cells [4] is > 30 µM.
Turning to `CC(C)n1nc(-c2ccc3oc(N)nc3c2)c2c(N)ncnc21` [INK 128], in series [5], the “dsRNA signal, AU High” value came out at 0.0 AU and the “dsRNA signal, AU Low” value was 31875.7 AU. Besides, the “Synergy (ZIP synergy model)” value in series [6] was “Antagonism”. Besides, in series [1], the Selectivity index came out at 11.590. Moreover, in series [1] (setting [7]), the concentration giving a half-maximal response (EC50) is 0.213 µM. Moreover, in the series on Calu-3 cells [2], the “Effect on host cell viability and morphology” value is listed as “little effect on host cell viability”. In series [3], the “Shift in UMAP space with increasing concentration” value is on record as “moving into cluster 1” and the “Grouping with red cluster” value is “INK 128*”. In addition, in the series with Calu-3 cells [4], the half-maximal effective concentration (EC50) is 2.47 µM.
Consider `CN(c1ncccc1CNc1nc(Nc2ccc3c(c2)CC(=O)N3)ncc1C(F)(F)F)S(C)(=O)=O` [PF-00562271], for which the “dsRNA signal, AU Low” value in series [5] is on record as 36485.5 AU. In addition, the EC50 in series [1] (setting [8]) is 8.6 µM; with Calu-3 cells [2], 4.39 µM. In addition, the Selectivity index in series [1] (setting [9]) is listed as 0.510. The “Grouping with red cluster” value in series [3] is “PF-00562271*”.
In the case of `Cc1ccc(Nc2nccc(N(C)c3ccc4c(C)n(C)nc4c3)n2)cc1S(N)(=O)=O.Cl` [Pazopanib HCl], in series [5], the “dsRNA signal, AU High” value worked out at 14157.8 AU and the “dsRNA signal, AU Low” value is 9479.9 AU. Besides, the EC50 in series [1] (setting [8]) was 8.64 µM. The Selectivity index in series [1] (setting [9]) is reported as >3.5. Moreover, in the series on Calu-3 cells [2], the 50% effective concentration (EC50) was > 30 µM. Also, the “Grouping with red cluster” value in series [3] is “Pazopanib HCl*”.
